ChEMBL document CHEMBL1141307, “Antimalarial benzoquinones from an endophytic fungus, Xylaria sp” (J Nat Prod, 2007)
The source made the active and inactive calls. The calls are words filed in the database; no cut-off is given here.

Legend:
Plasmodium falciparum = assay: Antimalarial activity against multidrug-resistant Plasmodium falciparum K1 by microculture radioisotope assay; assay type: functional, organism-based
Vero = assay: Cytotoxicity against African green monkey Vero cells after 72 hrs; assay type: cell-based; settings: Chlorocebus sabaeus

Row | SMILES | IC50 (Plasmodium falciparum) [nM] | IC50 (Vero) [nM] | Activity (Plasmodium falciparum) | Activity (Vero)
1 | COc1cc2c3c(oc2c(C)c1O)C(=O)C(C)=CC3=O [XYLARIAQUINONE A] | 6680 | > 184000 | – | –
2 | COC1=CC(=O)C(Cl)=C(C)C1=O | 1840 | 1350 | – | –
3 | COC1=CC(=O)C(O)=C(C)C1=O | – | – | inactive | Not Active
4 | Cc1c2ccncc2c(C)c2c1[nH]c1ccccc12 [ELLIPTECINE] | – | 2030 | – | –
5 | C[C@H]1[C@@H](O)O[C@@H]2O[C@@]3(C)CC[C@H]4[C@H](C)CC[C@@H]1[C@@]24OO3 [ARTENIMOL] | 3.3 | – | – | –
6 | C[C@H]1OC(=O)c2c(O)cccc2C1O (stereo not given in full) | – | – | inactive | Not Active
